Experimental data reported in ChEMBL document CHEMBL5728755, “Spirocycle compounds and methods of making and using same” (2021).

Key:
Monoglyceride lipase [1] = target: T1, Monoglyceride lipase (Homo sapiens, UniProt Q99685); assay: In Vitro Competitive Activity-Based Protein Profiling: Proteomes (human prefrontal cortex or cell membrane fractions) (50 μL, 1.0 mg/mL total protein concentration) were preincubated with varying concentrations of inhibitors at 37° C. After 30 min, FP-Rh or HT-01 (1.0 μL, 50 μM in DMSO) was added and the mixture was incubated for another 30 min at room temperature. Reactions were quenched with SDS loading buffer (15 μL—4×) and run on SDS-PAGE.
T1 sequence (Q99685 whole entry): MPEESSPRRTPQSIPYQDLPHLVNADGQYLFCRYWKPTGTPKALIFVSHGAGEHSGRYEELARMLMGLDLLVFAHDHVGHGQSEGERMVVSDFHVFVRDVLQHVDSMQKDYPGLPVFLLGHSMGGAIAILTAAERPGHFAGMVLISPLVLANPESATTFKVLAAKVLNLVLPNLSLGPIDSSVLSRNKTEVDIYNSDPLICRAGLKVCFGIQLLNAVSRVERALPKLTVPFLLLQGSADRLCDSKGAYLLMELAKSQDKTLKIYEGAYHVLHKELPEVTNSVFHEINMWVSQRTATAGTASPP

Monoglyceride lipase [2] = target: T2, Monoglyceride lipase (Mus musculus, UniProt O35678); assay: Preparation of Mouse Brain Proteomes from Inhibitor Treated Mice: Inhibitors were administered to wild-type C57B1/6J by oral gavage in a vehicle of polyethylene glycol. Each animal was sacrificed 4 h following administration and brain proteomes were prepared and analyzed according to previously established methods (See Niphakis, M. J., et al. (2011) ACS Chem. Neurosci. and Long, J. Z., et al. Nat. Chem. Biol. 5:37-44).
T2 sequence (O35678 whole entry): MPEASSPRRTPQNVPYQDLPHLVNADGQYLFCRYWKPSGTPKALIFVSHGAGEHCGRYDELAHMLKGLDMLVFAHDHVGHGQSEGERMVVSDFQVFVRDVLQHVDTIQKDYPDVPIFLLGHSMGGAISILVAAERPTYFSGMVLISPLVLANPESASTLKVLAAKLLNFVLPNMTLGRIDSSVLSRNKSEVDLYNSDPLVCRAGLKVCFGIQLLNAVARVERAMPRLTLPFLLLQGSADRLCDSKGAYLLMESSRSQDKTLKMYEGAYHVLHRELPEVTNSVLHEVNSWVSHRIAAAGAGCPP

Row | IC50 (Monoglyceride lipase [1]) | IC50 (Monoglyceride lipase [2]) | SMILES
1 | < 0.1 µM | – | O=C(OC(C(F)(F)F)C(F)(F)F)N1CCC2(CCCN2Cc2cc3cc(Cl)c(Cl)cc3[nH]2)CC1
2 | – | < 0.1 µM | Cc1ccc2cc(C(=O)N3CCCC34CCN(C(=O)OC(C(F)(F)F)C(F)(F)F)CC4)sc2c1
3 | < 0.1 µM | < 0.1 µM | Cc1c(CN2CCCC23CCN(C(=O)OC(C(F)(F)F)C(F)(F)F)CC3)[nH]c2ccc(Cl)cc12
4 | < 0.1 µM | – | COCCN(C(=O)C1(c2ncccn2)CC1)C1(C)CCN(C(=O)OC(C(F)(F)F)C(F)(F)F)CC1
5 | < 0.1 µM | < 0.1 µM | COc1cccc2cc(CN3CCCC34CCN(C(=O)OC(C(F)(F)F)C(F)(F)F)CC4)[nH]c12
6 | – | < 0.1 µM | O=C(OC(C(F)(F)F)C(F)(F)F)N1CCC2(CCCN2C(=O)c2cc3ccc(F)cc3s2)CC1
